Patent US20020137929A1, “1 - (3-heterocyclylphenyl) isothiourea, -isourea, -guanidine and -amidine herbicidal agents” (Intellectual Property Department, BASF Aktiengesellschaft, priority 1998, published 2002)

Assays:
[1] = test system: GLXMAW (Soybean, Williams); test: Preemergence herbicidal evaluation; format: in vivo, Glycine max, (L.) Merr. cv Williams; settings: rated 4-5 weeks after treatment
Source text: (§1) Results of herbicide evaluation are expressed on a rating scale (0-9). The scale is based upon a visual observation of plant stand, vigor, malformation, size, chlorosis and overall plant appearance as compared with a control.
(§2) The preemergence herbicidal activity of the test compounds of the present invention is exemplified by the following tests in which the seeds of a variety of monocotyledonous and dicotyledonous plants are separately mixed with potting soil and planted on top of approximately one inch of soil in separate pint cups. After planting, the cups are sprayed with the selected aqueous acetone solution containing test compound in sufficient quantity to provide the equivalent of about 0.0156 to 0.500 kg per hectare of test compound per cup. The treated cups are then placed on greenhouse benches, watered and cared for in accordance with conventional greenhouse procedures. From four to five weeks after treatment, the tests are terminated and each cup is examined and rated according to the rating system provided in Example 37.
(§3) The compounds evaluated are reported by compound number given in Example 37.

ORYSAT (Rice, Tebonnet) [2] = test: Preemergence herbicidal evaluation; format: in vivo, Oryza sativa, (L.) Tebonnet; settings: rated 4-5 weeks after treatment
Source text: as §1, §2, §3

SETVI (Foxtail, Green) = test: Preemergence herbicidal evaluation; format: in vivo, Setaria viridis; settings: rated 4-5 weeks after treatment
Source text: as §1, §2, §3

CASOB (Sicklepod) = test: Postemergence herbicidal evaluation; format: in vivo, Cassia obtusifolia; settings: postemergence
Method in brief: (§4)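 Rate range approx. 0.0156–0.500 kg/ha. Foliar application at 40 psi to ~2-week seedlings; surfactant 0.5% TWEEN 20 in 50/50 acetone/water. Evaluation 4–5 wk post-treatment by 0–9 visual injury score, means of replicate tests.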

CYPSE (Flatsedge) = test: Preemergence weed control under flooded paddy conditions; format: in vivo, Cyperus serotinus; settings: rated 3-4 weeks after treatment
Method in brief: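 Herbicidal effect is scored visually on a 0-9 scale against an untreated control, three to four weeks after compounds are pipetted into the flood water (1.5 to 3 cm deep) over seeds planted in silt loam at 0.5 cm depth. Rates: about 0.0313 to 0.500 kg/ha.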

AMBEL (Ragweed, Common) = test: Preemergence herbicidal evaluation; format: in vivo, Ambrosia artemisifolia; settings: rated 4-5 weeks after treatment
Source text: as §1, §2, §3

[3] = test system: CHEAL (Lambsquarters, Common); test: Postemergence herbicidal evaluation; format: in vivo, Chenopodium album; settings: postemergence
Method in brief: as §4

GALAP (Galium) = test: Postemergence herbicidal evaluation; format: in vivo, Galium aparine; settings: postemergence
Method in brief: as §4

ORYSAT (Rice, Tebonnet) [4] = test: Postemergence herbicidal evaluation; format: in vivo, Oryza sativa, (L.) Tebonnet; settings: postemergence
Method in brief: as §4

MOOVA (Monochoria) = test: Preemergence weed control under flooded paddy conditions; format: in vivo, Monochoria vaginalis; settings: rated 3-4 weeks after treatment
Description: as §1
Preemergence herbicidal activity under flooded paddy conditions is determined as follows: plant seeds or propagating organs are planted in the top 0.5 cm of silt loam soil in 32 oz. plastic containers with a diameter of 10.5 cm and no drainage holes. Water is added to these containers and maintained at 1.5 to 3 cm above the soil surface for the duration of the experiment. The test compounds are applied as aqueous/acetone mixtures 50/50 v/v pipetted directly into the flood water to give the equivalent of about 0.0313 to 0.500 kg/ha of active ingredient. The treated containers are placed on greenhouse benches and cared for in accordance with conventional greenhouse procedures. Three to four weeks after treatment, the test is terminated and each container is examined and herbicidal effect rated according to the rating system provided in Example 37. The compounds evaluated are reported by compound number given in Example 37.
Plant species employed in this example are reported by header abbreviation, common name and scientific name.

ZEAMX (Corn, Field) = test: Postemergence herbicidal evaluation; format: in vivo, Zea mays; settings: postemergence
Method in brief: as §4

CC(C)OC(=O)CN1C(=O)CSC1=Nc1cc(-n2c(=O)cc(C(F)(F)F)n(C)c2=O)c(F)cc1Cl [Compound 110]
3.5: Preemergence herbicidal rating AMBEL (AMBEL (Ragweed, Common); rate 0.0625 kg/ha) | Herbicidal rating ORYSAT (ORYSAT (Rice, Tebonnet) [4]; rate 0.0315 kg/ha) | Herbicidal rating ORYSAT (ORYSAT (Rice, Tebonnet) [4]; rate 0.0630 kg/ha)
5.0: Preemergence herbicidal rating ORYSAT (ORYSAT (Rice, Tebonnet) [2]; rate 0.2500 kg/ha) | Preemergence herbicidal rating SETVI (SETVI (Foxtail, Green); rate 0.0625 kg/ha) | Herbicidal rating ZEAMX (ZEAMX (Corn, Field); rate 0.0158 kg/ha)
4.0: Preemergence herbicidal rating GLXMAW ([1]; rate 0.1250 kg/ha) | Herbicidal rating GALAP (GALAP (Galium); rate 0.0630 kg/ha)
3.0: Preemergence herbicidal rating ORYSAT (ORYSAT (Rice, Tebonnet) [2]; rate 0.5000 kg/ha) | Herbicidal rating GALAP (GALAP (Galium); rate 0.0315 kg/ha)
1.5: Preemergence herbicidal rating ORYSAT (ORYSAT (Rice, Tebonnet) [2]; rate 0.1250 kg/ha) | Preemergence herbicidal rating SETVI (SETVI (Foxtail, Green); rate 0.0156 kg/ha)
0.0: Preemergence herbicidal rating ORYSAT (ORYSAT (Rice, Tebonnet) [2]; rate 0.0156 kg/ha) | CYPSE herbicidal effect rating (CYPSE (Flatsedge); 0.0313 kg/ha) | CYPSE herbicidal effect rating (CYPSE (Flatsedge); 0.0625 kg/ha) | CYPSE herbicidal effect rating (CYPSE (Flatsedge); 0.1250 kg/ha) | CYPSE herbicidal effect rating (CYPSE (Flatsedge); 0.2500 kg/ha)
5.5: Preemergence herbicidal rating GLXMAW ([1]; rate 0.2500 kg/ha)
4.5: Preemergence herbicidal rating AMBEL (AMBEL (Ragweed, Common); rate 0.1250 kg/ha)
8.0: Preemergence herbicidal rating SETVI (SETVI (Foxtail, Green); rate 0.1250 kg/ha)
6.5: Preemergence herbicidal rating AMBEL (AMBEL (Ragweed, Common); rate 0.2500 kg/ha) | Herbicidal rating ZEAMX (ZEAMX (Corn, Field); rate 0.0315 kg/ha)
0.5: Preemergence herbicidal rating GLXMAW ([1]; rate 0.0156 kg/ha) | Preemergence herbicidal rating GLXMAW ([1]; rate 0.0313 kg/ha) | Preemergence herbicidal rating ORYSAT (ORYSAT (Rice, Tebonnet) [2]; rate 0.0313 kg/ha) | Preemergence herbicidal rating ORYSAT (ORYSAT (Rice, Tebonnet) [2]; rate 0.0625 kg/ha)
1.0: Herbicidal rating CASOB (CASOB (Sicklepod); rate 0.0158 kg/ha) | Herbicidal rating CASOB (CASOB (Sicklepod); rate 0.0315 kg/ha) | Herbicidal rating CASOB (CASOB (Sicklepod); rate 0.0630 kg/ha) | Preemergence herbicidal rating AMBEL (AMBEL (Ragweed, Common); rate 0.0156 kg/ha) | Herbicidal rating GALAP (GALAP (Galium); rate 0.0158 kg/ha)
9.0: Preemergence herbicidal rating SETVI (SETVI (Foxtail, Green); rate 0.2500 kg/ha) | Preemergence herbicidal rating SETVI (SETVI (Foxtail, Green); rate 0.5000 kg/ha) | Preemergence herbicidal rating AMBEL (AMBEL (Ragweed, Common); rate 0.5000 kg/ha) | Herbicidal rating CHEAL ([3]; rate 0.0158 kg/ha) | Herbicidal rating CHEAL ([3]; rate 0.0315 kg/ha) | Herbicidal rating CHEAL ([3]; rate 0.0630 kg/ha) | MOOVA herbicidal effect rating (MOOVA (Monochoria); 0.0313 kg/ha) | MOOVA herbicidal effect rating (MOOVA (Monochoria); 0.0625 kg/ha) | MOOVA herbicidal effect rating (MOOVA (Monochoria); 0.1250 kg/ha) | MOOVA herbicidal effect rating (MOOVA (Monochoria); 0.2500 kg/ha)
7.0: Preemergence herbicidal rating GLXMAW ([1]; rate 0.5000 kg/ha) | Herbicidal rating ZEAMX (ZEAMX (Corn, Field); rate 0.0630 kg/ha)
2.5: Preemergence herbicidal rating GLXMAW ([1]; rate 0.0625 kg/ha) | Preemergence herbicidal rating SETVI (SETVI (Foxtail, Green); rate 0.0313 kg/ha) | Preemergence herbicidal rating AMBEL (AMBEL (Ragweed, Common); rate 0.0313 kg/ha) | Herbicidal rating ORYSAT (ORYSAT (Rice, Tebonnet) [4]; rate 0.0158 kg/ha)

CCOC(=O)CN1C(=O)C(CC(=O)O)SC1=Nc1cc(N2C(=O)CC(C(F)(F)F)CC2=O)c(F)cc1Cl (centres unmarked) [Compound 170, 2-{{2-Chloro-5-[2,6-dioxo-4-(trifluoromethyl)-piperidino]-4-fluorophenyl}imino}-4-oxo-3,5-thiazolidinediacetic acid, 3-ethyl ester]
0.0: Preemergence herbicidal rating ORYSAT (ORYSAT (Rice, Tebonnet) [2]; 0.0156 kg/ha) | Preemergence herbicidal rating ORYSAT (ORYSAT (Rice, Tebonnet) [2]; 0.0313 kg/ha) | Herbicidal rating CASOB (CASOB (Sicklepod); rate 0.0156 kg/ha) | Herbicidal rating CASOB (CASOB (Sicklepod); rate 0.0313 kg/ha) | Preemergence herbicidal rating AMBEL (AMBEL (Ragweed, Common); 0.0156 kg/ha) | Preemergence herbicidal rating AMBEL (AMBEL (Ragweed, Common); 0.0313 kg/ha) | Herbicidal rating GALAP (GALAP (Galium); rate 0.0156 kg/ha)
5.0: Preemergence herbicidal rating GLXMAW ([1]; 0.1250 kg/ha) | Herbicidal rating ZEAMX (ZEAMX (Corn, Field); rate 0.0156 kg/ha)
9.0: Preemergence herbicidal rating ORYSAT (ORYSAT (Rice, Tebonnet) [2]; 0.2500 kg/ha) | Preemergence herbicidal rating SETVI (SETVI (Foxtail, Green); 0.0156 kg/ha) | Preemergence herbicidal rating SETVI (SETVI (Foxtail, Green); 0.0313 kg/ha) | Preemergence herbicidal rating SETVI (SETVI (Foxtail, Green); 0.0625 kg/ha) | Preemergence herbicidal rating SETVI (SETVI (Foxtail, Green); 0.1250 kg/ha) | Preemergence herbicidal rating SETVI (SETVI (Foxtail, Green); 0.2500 kg/ha) | Preemergence herbicidal rating AMBEL (AMBEL (Ragweed, Common); 0.1250 kg/ha) | Preemergence herbicidal rating AMBEL (AMBEL (Ragweed, Common); 0.2500 kg/ha) | Herbicidal rating CHEAL ([3]; rate 0.0313 kg/ha) | Herbicidal rating CHEAL ([3]; rate 0.0625 kg/ha) | herbicidal effect rating, MOOVA (MOOVA (Monochoria); 0.0313 kg/ha) | herbicidal effect rating, MOOVA (MOOVA (Monochoria); 0.0625 kg/ha) | herbicidal effect rating, MOOVA (MOOVA (Monochoria); 0.1250 kg/ha) | herbicidal effect rating, MOOVA (MOOVA (Monochoria); 0.2500 kg/ha)
1.0: Preemergence herbicidal rating GLXMAW ([1]; 0.0156 kg/ha) | Herbicidal rating CASOB (CASOB (Sicklepod); rate 0.0625 kg/ha)
4.0: Preemergence herbicidal rating GLXMAW ([1]; 0.0313 kg/ha) | Preemergence herbicidal rating GLXMAW ([1]; 0.0625 kg/ha) | Preemergence herbicidal rating AMBEL (AMBEL (Ragweed, Common); 0.0625 kg/ha) | Herbicidal rating CHEAL ([3]; rate 0.0156 kg/ha) | Herbicidal rating GALAP (GALAP (Galium); rate 0.0625 kg/ha)
6.0: Preemergence herbicidal rating ORYSAT (ORYSAT (Rice, Tebonnet) [2]; 0.0625 kg/ha) | Herbicidal rating ZEAMX (ZEAMX (Corn, Field); rate 0.0313 kg/ha) | Herbicidal rating ZEAMX (ZEAMX (Corn, Field); rate 0.0625 kg/ha)
8.0: Preemergence herbicidal rating GLXMAW ([1]; 0.2500 kg/ha)
2.0: Herbicidal rating ORYSAT (ORYSAT (Rice, Tebonnet) [4]; rate 0.0156 kg/ha) | Herbicidal rating ORYSAT (ORYSAT (Rice, Tebonnet) [4]; rate 0.0313 kg/ha)
3.0: Herbicidal rating GALAP (GALAP (Galium); rate 0.0313 kg/ha)
2.5: Herbicidal rating ORYSAT (ORYSAT (Rice, Tebonnet) [4]; rate 0.0625 kg/ha)
7.0: Preemergence herbicidal rating ORYSAT (ORYSAT (Rice, Tebonnet) [2]; 0.1250 kg/ha)
